Here are results for 2 compounds from paper PMC5703966, “Systemic clearance and brain distribution of carbazole-based cyanine compounds as Alzheimer’s disease drug candidates” (Scientific Reports, 2017).

SMILES strings stand for the structures. Where two headings read alike, the source gives them in different places. A value given as a limit tells only on which side of the number the result lay.

Data set [1] in a line: Liver microsomes stability with UDPGA and alamethacin (glucuronidation). Type of data set: in vitro ADME. To be noted: 0.5 mg/mL microsomes protein, read-out: t 1/2 in liver microsomes with UDPGA and alamethacin. From the text:
Microsomes and hepatocytes stability procedures and their parameters (the apparent intrinsic clearance (Cl int,app), unbound apparent intrinsic clearance (Cl u, int,app), scaled intrinsic clearance (Cl int,scaled), unbound scaled intrinsic clearance (Cl u, int,scaled), and Cl hep) calculation methods were shown in supplemental information (Supplemental Methods). The metabolites identification methods including LC-MS conditions was also found in supplemental information (Supplemental Methods). Several marker compounds as quality control were assayed (Table S6).
(§1) MS/MS. Natural logarithm of peak area ratios (compound peak area normalized by IS peak area) were plotted against time and half-life calculated. […]
In vitro stability in liver microsomes and hepatocytes
Half-life (t1/2) of SLM or SLOH in liver microsomes was determined in duplicate. In phase I reaction, the compound (1 μM) was incubated with liver microsomes (0.5 mg/mL) in 100 mM sodium phosphate buffer (pH 7.4) including 81 mM Na2HPO4 and 19 mM NaH2PO4 ) at 37 °C, the reaction mixture was prewarmed at 37 °C for 2 minutes before adding NADPH (1.0 mM). In phase II reaction, the compound (1 μM) was incubated with liver microsomes (0.5 mg/mL) in 100 mM Tris-HCl buffer (pH 7.4) containing 5 mM MgCl2, 10 μg/mL alamethicin, and 2% (w/v) BSA. After pre-incubated on ice for 15 min, the reactions were initiated with the addition of UDPGA (5.0 mM). Aliquots of the reaction mixture at 0, 5, 10, 15, 30 or 45 minutes were added to 4 folds acetonitrile (ACN) containing internal standard (IS), and the samples were centrifuged at 9,659 g for 5 mins before LC-MS/MS analysis of substrate […]
disappearance. […]
Hepatocytes were suspended at 0.5 × 10^6 viable cells/mL of HT Medium and prewarmed at 37 °C for 10 minutes. Incubations were initiated with the addition of SLM and SLOH (final concentration=1 μM) and were conducted at 37 °C, 75% relative humidity, and 5% CO2. The reaction was stopped at 0, 5, 15, 30, 60, 90, 120 minutes by the addition of 4 folds ACN containing berberine chloride as internal standard

A short description of data set [2]: Liver microsomes binding by RED device. In kind it is in vitro ADME. How it is done:
Nonspecific binding in plasma (f u, plasma), microsomes (f u, mic) and hepatocyte (f u, hep) were determined using the method seen in supplemental information (Supplemental Methods). […]
Plasma, liver microsomes and hepatocyte binding by RED device […]
The stability of the compounds in plasma, liver microsomes and hepatocyte were studied to ensure […]
the reliability of the binding data. Hepatocyte was deactivated by leaving them on a bench for 2 days […]
and going through a freeze thaw cycle thereafter. […]
denatured. Testosterone was used as a control for CYP3A to ensure no turnover, so that the enzymes […]
were inactivated. All validation compounds were incubated at 37 °C over 4 h, and in triplicate. […]
For liver mi crosomes without cofactors and […]
mg/mL protein concentration, same as the assay condition) or deactivated hepatocytes (0.5 million […]
cells/mL, same as the assay condition) were added to the donor wells. 10 mM DMSO solutions of SLM […]
and SLOH were diluted to 50 µM (10% DMSO). 490 µL aliquots microsomes (0.51 mg/mL) and […]
hepatocytes (0.51 million cells/mL) were dispensed into a 1.5 mL tube, and then pre-warmed at 37 °C […]
in a shaking water bath. The assay was started by addition of 10 µL aliquots of compound solutions to […]
the corresponding biologica l matrices (final DMSO incubation concentration 0.2%, microsomes […]
concentration 0.50 mg/mL, hepatocytes concentration 0.5 million cells/mL). At 0, 15, 30, 60, 120, 180 […]
as §1
placed into the sample chamber (indicated by the red ring) with 400 µL of PBS into the adjacent chamber.
The plate was sealed with a self-adhesive lid and incubated at 37 °C on an orbital shaker (1.5 g approx.) for 4 h. Aliquots (100 µL) were removed from each side of the insert, and analyzed after protein precipitation using 4 folds acetonitrile (ACN) containing berberine chloride as internal standard (IS) by LC-MS/MS (Analytical me thod seen below). The experimental procedure outlined in the Thermo Scientific RED device systems brochure was adopted in the present study . […]
For control experiments, NADPH, UDPGA and/or liver microsomes were omitted from these incubations. For the purposes of metabolite identification studies, the concentration of SLOH and […]
For orientation: Microsomes from liver hold many membrane-bound enzymes, among them those of drug oxidation.

The test system of a further data set is Aβ. Further details: method as in PMID 22086555. The note with it: cited from earlier work.
The next data set has as its system AD model mice. Further details: method as in PMID 28032988. To be noted: cited from earlier work.
Where [3] appears, read: human liver microsomes 0.5 mg/mL.
Setting [4] is: mouse liver microsomes 0.5 mg/mL.

Regarding `COCCOCCn1c2ccccc2c2cc(/C=C/c3cc[n+](C)c4ccccc34)ccc21.[I-]` [SLM, (E)-4-(2-(9-(2-(2-methoxyethoxy)ethyl)-9H-carbazol-3-yl)-vinyl)-1-methyl-quinolin-1-iumiodide], the half-life at 1 μM was more than 8.33 h in data set [1] (ICR/CD-1, mouse, pH 7.4, mice) and more than 8.33 h in data set [1] (pH 7.4, human). The “f u,mic %” value in data set [2] (setting [3]) is 7.30 ± 0.150%; in data set [2] (setting [4]), 11.0 ± 1.06^$ %. Further, the “reduction of Aβ fibrillogenesis in vitro” value in the data set on Aβ is recorded as “reduce Aβ fibrillogenesis significantly”. The “effect on pathological symptom and memory deterioration” value in the data set on AD model mice is “alleviate the pathological symptom and memory deterioration”.
Consider `COCCOCCn1c2ccccc2c2cc(/C=C/c3cc[n+](CCO)c4ccccc34)ccc21` [SLOH, (E)-1-(2-hydroxyethyl)-4-(2-(9-(2-(2-metho-xyethoxy)-ethyl)-9H-carbazol-3-yl)vinyl) quinolin-1-ium chloride], for which the half-life at 1 μM was more than 8.33 h in data set [1] (ICR/CD-1, mouse, pH 7.4, mice) and more than 8.33 h in data set [1] (pH 7.4, human). In addition, the “f u,mic %” value in data set [2] (setting [3]) is recorded as 6.60 ± 1.60%; in data set [2] (setting [4]), 17.0 ± 2.40^$ %. Moreover, in the data set with Aβ, the “reduction of Aβ fibrillogenesis in vitro” value is reported as “reduce Aβ fibrillogenesis significantly”. For the same compound, the “effect on pathological symptom and memory deterioration” value with AD model mice was “alleviate the pathological symptom and memory deterioration”.
